Measured values published in article PMC11435058, “Synthesis of New Thiazole-Privileged Chalcones as Tubulin Polymerization Inhibitors with Potential Anticancer Activities” (Pharmaceuticals, 2024).
Read-outs that look alike come from different tables or passages of the source.

How the values were obtained:
[1] = test system: 60 human tumor cell lines panel; test: NCI-60 anticancer screen, whole panel (means and ranges over the cell lines); format: cell-based; details: for activity at 10 µM: Homo sapiens, 48 h
[2] = test system: OVCAR-3; test: cells; details: Homo sapiens; for activity at 10 µM: OVCAR-3, 48 h, read-out: Growth Percentage
[3] = test system: K-562; test: NCI-60 anticancer screen (SRB; single dose and five doses); details: Homo sapiens; for activity at 10 µM: K562, 48 h, read-out: Growth Percentage
[4] = test system: SR; test: as above; details: Homo sapiens; for activity at 10 µM: 48 h, read-out: Growth Percentage
[5] = test system: A549/ATCC; test: as above; details: Homo sapiens; for activity at 10 µM: A549, 48 h, read-out: Growth Percentage
[6] = test system: EKVX; test: as above; details: Homo sapiens; for activity at 10 µM: 48 h, read-out: Growth Percentage
[7] = test system: HOP-92; test: as above; details: Homo sapiens; for activity at 10 µM: HOP-92, 48 h, read-out: Growth Percentage
[8] = test system: NCI-H522; test: as above; details: Homo sapiens; for activity at 10 µM: NCI-H522, 48 h, read-out: Growth Percentage
[9] = test system: HT29; test: as above; details: Homo sapiens; for activity at 10 µM: HT-29, 48 h, read-out: Growth Percentage
[10] = test system: KM12; test: as above; details: Homo sapiens; for activity at 10 µM: KM12, 48 h, read-out: Growth Percentage
[11] = test system: SW-620; test: as above; details: Homo sapiens; for activity at 10 µM: SW-620, 48 h, read-out: Growth Percentage
[12] = test system: SF-539; test: as above; details: Homo sapiens; for activity at 10 µM: SF-539, 48 h, read-out: Growth Percentage
[13] = test system: SNB-75; test: as above; details: Homo sapiens, SNB-75, 48 h, read-out: Growth Percentage
[14] = test system: MDA-MB-435; test: as above; details: Homo sapiens; for activity at 10 µM: MDA-MB-435, 48 h, read-out: Growth Percentage
[15] = test system: SK-MEL-28; test: as above; details: Homo sapiens; for activity at 10 µM: SK-MEL-28, 48 h, read-out: Growth Percentage
[16] = test system: IGROV1; test: as above; details: Homo sapiens; for activity at 10 µM: IGROV-1, 48 h, read-out: Growth Percentage
[17] = test system: OVCAR-5; test: as above; details: Homo sapiens; for activity at 10 µM: OVCAR-5, 48 h, read-out: Growth Percentage
[18] = test system: NCI/ADR-RES; test: as above; details: Homo sapiens; for activity at 10 µM: 48 h, read-out: Growth Percentage
[19] = test system: SK-OV-3; test: as above; details: Homo sapiens; for activity at 10 µM: SK-OV-3, 48 h, read-out: Growth Percentage
[20] = test system: A498; test: as above; details: Homo sapiens; for activity at 10 µM: A498, 48 h, read-out: Growth Percentage, A498, dose of 10 μM
[21] = test system: ACHN; test: as above; details: Homo sapiens; for activity at 10 µM: 48 h, read-out: Growth Percentage
[22] = test system: CAKI-1; test: as above; details: Homo sapiens; for activity at 10 µM: CAKI-1, 48 h, read-out: Growth Percentage
[23] = test system: RXF 393; test: as above; details: Homo sapiens; for activity at 10 µM: RXF 393, 48 h, read-out: Growth Percentage
[24] = test system: SN12C; test: as above; details: Homo sapiens; for activity at 10 µM: 48 h, read-out: Growth Percentage
[25] = test system: PC-3; test: as above; details: Homo sapiens; for activity at 10 µM: PC-3, 48 h, read-out: Growth Percentage
[26] = test system: DU-145; test: as above; details: Homo sapiens; for activity at 10 µM: DU-145, 48 h, read-out: Growth Percentage
[27] = test system: MDA-MB-231/ATCC; test: as above; details: Homo sapiens; for activity at 10 µM: MDA-MB-231, 48 h, read-out: Growth Percentage
[28] = test system: HS 578T; test: as above; details: Homo sapiens; for activity at 10 µM: 48 h, read-out: Growth Percentage
[29] = test system: CCRF-CEM; test: NCI-60 anticancer screen (SRB; single dose 10 μM and five doses); details: Homo sapiens; for activity at 10 µM: 48 h, read-out: Growth Percentage
[30] = mean over the tested cell lines, dose of 10 μM, read-out: Mean growth percentage
[31] = five doses, mean graph midpoint over all cell lines

## Cc1[nH]c(=S)sc1C(=O)/C=C/c1ccc(Br)cc1 [2g, (E)-3-(4-Bromophenyl)-1-(4-Methyl-2-Thioxo-2,3-Dihydrothiazol-5-yl)Prop-2-En-1-One]
[1]; [30]
  activity at 10 µM: 34.2%
[1]; range over the cell lines, dose of 10 μM, read-out: growth percentages against most of the tested cells (lowest to highest)
  activity at 10 µM: -34.1 to 109%
[1]; [31]
  Log10GI50 _MID: -5.31 Molar
  Log10LC50 _MID: -4.3 Molar
  Log10TGI _MID: -4.75 Molar
[2]; OVCAR-3
  GI50: 1.88 µM
[2]
  activity at 10 µM: -12.3%
[2]; OVCAR-3, read-out: LC50
  CC50: 9.7 µM
[2]; OVCAR-3, read-out: TGI
  IC (TGI): 4.27 µM
[3]; K562
  GI50: 2.73 µM
[3]
  activity at 10 µM: 13.6%
[3]; K562, read-out: LC50
  CC50: > 100 µM
[3]; K562, read-out: TGI
  IC (TGI): > 100 µM
[4]
  GI50: 2.83 µM
  activity at 10 µM: 8.46%
[4]; read-out: LC50
  CC50: > 100 µM
[4]; read-out: TGI
  IC (TGI): 23.2 µM
[5]; A549
  GI50: 11.7 µM
[5]
  activity at 10 µM: 64.1%
[5]; A549, read-out: LC50
  CC50: 55.3 µM
[5]; A549, read-out: TGI
  IC (TGI): 25.4 µM
[6]
  GI50: 10.6 µM
  activity at 10 µM: 62.9%
[6]; read-out: LC50
  CC50: 51 µM
[6]; read-out: TGI
  IC (TGI): 23.3 µM
[7]; HOP-92
  GI50: 6.44 µM
[7]
  activity at 10 µM: 67.1%
[7]; HOP-92, read-out: LC50
  CC50: 58.8 µM
[7]; HOP-92, read-out: TGI
  IC (TGI): 22.5 µM
[8]; NCI-H522
  GI50: 3.37 µM
[8]
  activity at 10 µM: 21.1%
[8]; NCI-H522, read-out: LC50
  CC50: 41.2 µM
[8]; NCI-H522, read-out: TGI
  IC (TGI): 14.3 µM
[9]; HT-29
  GI50: 5.09 µM
[9]
  activity at 10 µM: 76.3%
[9]; HT-29, read-out: LC50
  CC50: 57.8 µM
[9]; HT-29, read-out: TGI
  IC (TGI): 19.3 µM
[10]; KM12
  GI50: 3.27 µM
[10]
  activity at 10 µM: 1.17%
[10]; KM12, read-out: LC50
  CC50: 35.9 µM
[10]; KM12, read-out: TGI
  IC (TGI): 11 µM
[11]; SW-620
  GI50: 2.82 µM
[11]
  activity at 10 µM: 5.7%
[11]; SW-620, read-out: LC50
  CC50: 41.6 µM
[11]; SW-620, read-out: TGI
  IC (TGI): 11.7 µM
[12]; SF-539
  GI50: 2 µM
[12]
  activity at 10 µM: -25.3%
[12]; SF-539, read-out: TGI
  IC (TGI): 4.67 µM
[13]
  activity at 10 µM: 2.52%
[14]; MDA-MB-435
  GI50: 4.12 µM
[14]
  activity at 10 µM: 8.26%
[14]; MDA-MB-435, read-out: LC50
  CC50: 45.1 µM
[14]; MDA-MB-435, read-out: TGI
  IC (TGI): 16.7 µM
[15]; SK-MEL-28
  GI50: 11.9 µM
[15]
  activity at 10 µM: 64.2%
[15]; SK-MEL-28, read-out: LC50
  CC50: 50.2 µM
[15]; SK-MEL-28, read-out: TGI
  IC (TGI): 24.5 µM
[16]; IGROV-1
  GI50: 3.29 µM
[16]
  activity at 10 µM: 37.1%
[16]; IGROV-1, read-out: LC50
  CC50: 53.4 µM
[16]; IGROV-1, read-out: TGI
  IC (TGI): 11.9 µM
[17]; OVCAR-5
  GI50: 15.4 µM
[17]
  activity at 10 µM: 116%
[17]; OVCAR-5, read-out: LC50
  CC50: 57.3 µM
[17]; OVCAR-5, read-out: TGI
  IC (TGI): 29.7 µM
[18]
  GI50: 6.04 µM
  activity at 10 µM: -13.9%
[18]; read-out: LC50
  CC50: 73.4 µM
[18]; read-out: TGI
  IC (TGI): 23.4 µM
[19]; SK-OV-3
  GI50: 13.8 µM
[19]
  activity at 10 µM: 96.7%
[19]; SK-OV-3, read-out: LC50
  CC50: 74.9 µM
[19]; SK-OV-3, read-out: TGI
  IC (TGI): 32.2 µM
[20]; A498
  GI50: 13.5 µM
[20]
  activity at 10 µM: 109%
[20]; A498, read-out: LC50
  CC50: 51.8 µM
[20]; A498, read-out: TGI
  IC (TGI): 26.5 µM
[21]
  GI50: 7.67 µM
  activity at 10 µM: 55%
[21]; read-out: LC50
  CC50: 45.4 µM
[21]; read-out: TGI
  IC (TGI): 20.3 µM
[22]; CAKI-1
  GI50: 10 µM
[22]
  activity at 10 µM: 32.8%
[22]; CAKI-1, read-out: LC50
  CC50: 47.2 µM
[22]; CAKI-1, read-out: TGI
  IC (TGI): 21.8 µM
[23]; RXF 393
  GI50: 2.58 µM
[23]
  activity at 10 µM: 16%
[23]; RXF 393, read-out: LC50
  CC50: 33 µM
[23]; RXF 393, read-out: TGI
  IC (TGI): 9.43 µM
[24]
  GI50: 3.15 µM
  activity at 10 µM: 19.2%
[24]; read-out: LC50
  CC50: 36.8 µM
[24]; read-out: TGI
  IC (TGI): 13.1 µM
[25]; PC-3
  GI50: 4.68 µM
[25]
  activity at 10 µM: 48.8%
[25]; PC-3, read-out: LC50
  CC50: > 100 µM
[25]; PC-3, read-out: TGI
  IC (TGI): 26 µM
[26]; DU-145
  GI50: 3.52 µM
[26]
  activity at 10 µM: 23.9%
[26]; DU-145, read-out: LC50
  CC50: 35.3 µM
[26]; DU-145, read-out: TGI
  IC (TGI): 12 µM
[27]; MDA-MB-231
  GI50: 10.9 µM
[27]
  activity at 10 µM: 9.49%
[27]; MDA-MB-231, read-out: LC50
  CC50: 50.9 µM
[27]; MDA-MB-231, read-out: TGI
  IC (TGI): 23.5 µM
[28]
  GI50: 10.4 µM
  activity at 10 µM: 74.6%
[28]; read-out: LC50
  CC50: > 100 µM
[28]; read-out: TGI
  IC (TGI): 33 µM
[29]
  GI50: 3.06 µM
  activity at 10 µM: -11%
[29]; read-out: TGI
  IC (TGI): 61.5 µM

## Cc1ccc(/C=C/C(=O)c2sc(=S)[nH]c2C)cc1 [2j, (E)-1-(4-Methyl-2-Thioxo-2,3-Dihydrothiazol-5-yl)-3-(p-Tolyl)Prop-2-En-1-One]
[1]; read-out: growth percentages against most of the tested cells (lowest to highest)
  activity at 10 µM: 11.8 to 131%
[1]; [30]
  activity at 10 µM: 63.3%
[2]
  activity at 10 µM: 15%
[3]
  activity at 10 µM: 34.2%
[4]
  activity at 10 µM: 45.5%
[5]
  activity at 10 µM: 74.3%
[6]
  activity at 10 µM: 55.5%
[7]
  activity at 10 µM: 98%
[8]
  activity at 10 µM: 60.2%
[9]
  activity at 10 µM: 98.7%
[10]
  activity at 10 µM: 29.8%
[11]
  activity at 10 µM: 35.9%
[12]
  activity at 10 µM: 43%
[13]
  activity at 10 µM: 78.1%
[14]
  activity at 10 µM: 39%
[15]
  activity at 10 µM: 92.8%
[16]
  activity at 10 µM: 83.4%
[17]
  activity at 10 µM: 138%
[18]
  activity at 10 µM: 31%
[19]
  activity at 10 µM: 102%
[20]
  activity at 10 µM: 131%
[21]
  activity at 10 µM: 71.2%
[22]
  activity at 10 µM: 43.4%
[23]
  activity at 10 µM: 55.4%
[24]
  activity at 10 µM: 62.3%
[25]
  activity at 10 µM: 74.8%
[26]
  activity at 10 µM: 54.6%
[27]
  activity at 10 µM: 71.7%
[28]
  activity at 10 µM: 101%
[29]
  activity at 10 µM: 24.6%
